Source: US20250043299A1, “POINT MUTATIONS THAT BOOST AROMATIC AMINO ACID PRODUCTION AND CO2 ASSIMILATION IN PLANTS” (Wisconsin Alumni Research Foundation, priority 2021, published 2025)
Entries after “also recorded” stand apart in the source; their conditions may differ.

Legend:
[1] = molecular target: T1, Arabidopsis thaliana DHS1 (AtDHS1), wild type (DHS1^WT), SEQ ID NO:1 (Arabidopsis thaliana, UniProt P29976); assay: DHS enzyme assay with effector, Arabidopsis DHS1 WT; format: biochemical; settings: DHS1^WT; 4 mM E4P, 4 mM PEP, pH 7.4, 37° C.
T1 construct: without the predicted plastid transit peptide (amino acid residues; 49-525, 34-507, and 52-527, respectively); made in house; host or cells: E. coli Rosetta-2
T1 sequence (P29976 49-525): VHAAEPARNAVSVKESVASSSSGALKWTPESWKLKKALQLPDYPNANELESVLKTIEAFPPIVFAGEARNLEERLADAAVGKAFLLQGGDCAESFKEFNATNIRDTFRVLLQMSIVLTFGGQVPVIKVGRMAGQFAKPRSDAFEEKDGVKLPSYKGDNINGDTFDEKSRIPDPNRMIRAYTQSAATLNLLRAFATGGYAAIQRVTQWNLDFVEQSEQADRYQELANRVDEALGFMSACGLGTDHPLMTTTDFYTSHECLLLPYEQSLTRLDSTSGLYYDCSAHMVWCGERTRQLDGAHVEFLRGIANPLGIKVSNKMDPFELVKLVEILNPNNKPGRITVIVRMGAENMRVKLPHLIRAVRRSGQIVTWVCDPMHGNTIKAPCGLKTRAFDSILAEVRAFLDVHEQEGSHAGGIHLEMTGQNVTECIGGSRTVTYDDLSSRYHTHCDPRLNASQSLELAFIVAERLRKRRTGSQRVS
Description: To generate DHS proteins with individual sota mutations via site-directed mutagenesis, these pET28a plasmid templates were diluted by 500-fold, mixed with 0.04 U/μL Phusion DNA polymerase (Thermo Scientific), 0.2 mM deoxynucleoside triphosphates (dNTPs), 1× Phusion reaction buffer (Thermo Scientific), and 0.5 μM forward and reverse mutagenesis primers (Table 10). The PCR reaction was run using the following protocol: 98° C. for 30 s followed by 20 cycles of 10 s at 98° C., 20 s at 70° C., 4.5 min at 72° C. with a final extension at 72° C. for 10 min. The PCR products were purified using a QIAquick Gel Extraction Kit (QIAGEN), treated with FastDigest DpnI (Thermo Scientific) to digest methylated plasmid template DNA for 20 min at 37° C., and transformed into E. coli cells. The mutagenized pET28a plasmids were sequenced to confirm that no errors were introduced during the mutagenesis process.
The DHS enzyme assays were conducted using the colorimetric method that we recently described (9). Briefly, the enzyme solution (7.7 μl) containing 50 mM Hepes (pH 7.4) was preincubated with an effector molecule(s) at room temperature for 15 min. For assays using recombinant protein and enzyme fractions isolated from plant leaves, 0.01 to 0.1 μg and approximately 50 μg of proteins were used, respectively. After adding 0.5 μl of 0.1 M dithiothreitol, the samples were further incubated at room temperature for 15 min. During these incubations, the substrate solution containing 50 mM Hepes (pH 7.4), 2 mM MnCl2, 4 mM E4P, and 4 mM PEP at final concentration was preheated at 37° C. The enzyme reaction was started by adding 6.8 μl of the substrate solution, then incubated at 37° C. for 30 min, and terminated by adding 30 μl of 0.6 M trichloroacetic acid. After a brief centrifugation, 5 μl of 200 mM NaIO4 (sodium meta-periodate) in 9 N H3PO4 was added to oxidize the enzymatic product and to incubate at 25° C. for 20 min. To stop the oxidation reaction, 20 μl of 0.75 M NaAsO2 (sodium arsenite), which was dissolved in 0.5 M Na2SO4 and 0.05 M H2SO4, was added and immediately mixed. […]

[2] = molecular target: T2, Arabidopsis thaliana DHS2 (SEQ ID NO:2) variant DHS2^A4 (sotaA4), G222S (Arabidopsis thaliana, UniProt Q00218, G222S); assay: Differential scanning fluorimetry protein-ligand affinity analysis, DHS2 sotaA4; format: binding; settings: ligand at 1 mM
T2 construct: without the predicted plastid transit peptide (amino acid residues; 49-525, 34-507, and 52-527, respectively); made in house; host or cells: E. coli
T2 sequence (Q00218 34-507 G222S): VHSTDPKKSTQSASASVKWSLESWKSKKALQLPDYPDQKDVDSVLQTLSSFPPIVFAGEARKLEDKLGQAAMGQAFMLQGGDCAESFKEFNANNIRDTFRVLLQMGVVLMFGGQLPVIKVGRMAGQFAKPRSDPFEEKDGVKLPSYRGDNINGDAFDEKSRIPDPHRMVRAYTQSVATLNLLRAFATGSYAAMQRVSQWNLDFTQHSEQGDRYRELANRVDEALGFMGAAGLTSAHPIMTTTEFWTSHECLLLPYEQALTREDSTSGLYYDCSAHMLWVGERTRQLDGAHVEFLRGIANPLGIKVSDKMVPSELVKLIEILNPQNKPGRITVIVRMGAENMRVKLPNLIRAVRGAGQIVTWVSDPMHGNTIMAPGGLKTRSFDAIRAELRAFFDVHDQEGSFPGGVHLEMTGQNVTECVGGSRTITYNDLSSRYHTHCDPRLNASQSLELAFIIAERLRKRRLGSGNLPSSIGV
Description: (A) Simplified pathway map of AAAs and AAA-derived metabolites used in the effector screening. […] Data are means±SEM (n=3 independent assays).
(§1) To examine the impact of the sota mutations on the interaction between DHS and AAA effectors (FIG. 22), a differential scanning fluorimetry (DSF) analysis (48) was conducted using the recombinant DHS2^WT and DHS2^A4 proteins. […] The fluorescence signal was monitored during the stepwise increase in temperature (1° C. per minute from 25° C. to 95° C.). The Tm was calculated by nonlinear regression analysis using the Boltzmann sigmoidal equation (48).

[3] = molecular target: T3, DHS2^A4 (Arabidopsis thaliana, UniProt Q00218, G222S); assay: Differential scanning fluorimetry (DSF) protein-ligand affinity analysis, DHS2^A4; format: binding; settings: ligand at 1 mM
T3 construct: without the predicted plastid transit peptide (amino acid residues; 49-525, 34-507, and 52-527, respectively); made in house; host or cells: E. coli
T3 sequence (Q00218 34-507 G222S): as above
Description: as §1

[4] = system: DHS3^WT; settings: AAAs: from Yokoyama et al., Plant Cell, 2021; cited from earlier work
[5] = molecular target: T4, DHS2^WT (Arabidopsis thaliana, UniProt Q00218); assay: Differential scanning fluorimetry (DSF) protein-ligand affinity analysis, DHS2^WT; format: binding; settings: ligand at 1 mM
T4 construct: without the predicted plastid transit peptide (amino acid residues; 49-525, 34-507, and 52-527, respectively); made in house; host or cells: E. coli Rosetta-2
T4 sequence (Q00218 34-507): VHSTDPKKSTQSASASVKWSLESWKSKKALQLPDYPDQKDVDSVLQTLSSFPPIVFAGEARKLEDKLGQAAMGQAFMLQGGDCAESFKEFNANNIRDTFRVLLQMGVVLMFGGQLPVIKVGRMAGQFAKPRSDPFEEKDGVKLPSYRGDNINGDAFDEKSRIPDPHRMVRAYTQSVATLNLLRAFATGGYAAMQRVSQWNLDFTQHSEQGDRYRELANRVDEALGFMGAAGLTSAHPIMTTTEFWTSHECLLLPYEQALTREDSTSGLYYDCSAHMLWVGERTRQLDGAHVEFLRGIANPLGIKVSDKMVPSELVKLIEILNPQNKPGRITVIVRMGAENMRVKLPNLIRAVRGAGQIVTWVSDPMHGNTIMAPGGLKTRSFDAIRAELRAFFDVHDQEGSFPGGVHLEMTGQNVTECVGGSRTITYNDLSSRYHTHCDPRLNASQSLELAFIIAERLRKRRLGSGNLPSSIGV
Description: as §1

[6] = molecular target: T5, DHS1^WT (Arabidopsis thaliana, UniProt P29976); settings: AAAs, chorismate, caffeate: from Yokoyama et al., Plant Cell, 2021; cited from earlier work
T5 construct: without the predicted plastid transit peptide (amino acid residues; 49-525, 34-507, and 52-527, respectively); made in house; host or cells: E. coli Rosetta-2
T5 sequence (P29976 49-525): as the sequence (P29976 49-525) above

Structure (SMILES) | IC50 [1] | binding (DSF) [2] | effect on melting temperature (Tm) / binding of DHS2^A4 [3] | IC50 of effector molecule on DHS3^WT [4] | effect on melting temperature (Tm) of DHS2^WT [5] | IC50 of effector molecule on DHS1^WT [6]
O=C(O)C(=O)Cc1ccc(O)cc1 [HPP, 4-Hydroxyphenylpyruvate] | 305 µM |  |  |  |  | 
N[C@@H](Cc1c[nH]c2ccccc12)C(=O)O [Trp, tryptophan] |  | still binds Tyr and Trp | still binds; also recorded: significantly increased the Tm | Not inhibited | significantly increased the Tm | Not inhibited
